The test addresses T1, hPAT1 (SLC36A1) (Homo sapiens, UniProt Q7Z2H8).
T1 construct: full open reading frame amplified from human small intestine RNA, pTNT vector, cRNA injected into Xenopus laevis oocytes; 476 residues, about 53 kDa
Put plainly: two-electrode voltage clamp of Xenopus oocytes, substrate-induced current; inhibition of NA-Fe(II)-elicited current. Type of test: cell-based. The settings on record: pH 6.0, -60 mV; 0.5 mM NA-Fe(II) (figure legend; Methods say 1 mM). (Two-electrode voltage clamp holds a large cell at a set potential and records current.)

T1 sequence (Q7Z2H8 whole entry): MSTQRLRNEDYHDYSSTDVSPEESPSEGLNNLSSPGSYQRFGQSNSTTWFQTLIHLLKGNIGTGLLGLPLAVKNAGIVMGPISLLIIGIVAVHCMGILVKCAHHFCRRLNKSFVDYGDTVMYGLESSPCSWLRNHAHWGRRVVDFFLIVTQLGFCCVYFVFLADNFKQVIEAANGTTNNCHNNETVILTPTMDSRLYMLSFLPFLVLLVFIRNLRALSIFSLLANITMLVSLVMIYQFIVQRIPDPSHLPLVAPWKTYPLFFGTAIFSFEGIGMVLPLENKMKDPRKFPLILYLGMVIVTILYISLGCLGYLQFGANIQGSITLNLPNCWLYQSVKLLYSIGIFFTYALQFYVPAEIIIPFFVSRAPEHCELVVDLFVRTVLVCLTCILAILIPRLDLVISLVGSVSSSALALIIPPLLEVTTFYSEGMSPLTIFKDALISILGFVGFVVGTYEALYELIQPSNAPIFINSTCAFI

In the case of `N[C@@H](Cc1c[nH]c2ccc(O)cc12)C(=O)O` [5-hydroxytryptophan], the “% of original current remaining at 5 mM” value turned out to be 30.1%.
